Results: US20170142972A1, “ANTIMICROBIAL COMPOSITION INHIBITS BACTERIA AND FUNGI” (Troy Corporation, priority 2017, published 2017)

Tested on: Pseudomonas aeruginosa (ATCC #10145), Escherichia coli (ATCC #11229), Enterobacter aerogenes (ATCC #13048), and Alcaligenes faecalis (ATCC #25094)
Experiment: Challenge Method for Quantifying Antibacterial Effectiveness (two 7-day cycles, mixed bacterial inoculum)
Type: cell-based
Conditions: agent alone
Protocol: In order to quantify the relative antibacterial effectiveness of an antimicrobial composition, samples are prepared by adding various amounts of the antimicrobial composition to identical volumes of a sterile test material. […] Each of the samples is subjected to a two-part challenge procedure and the sample that provides acceptable anti-bacterial protection with the lowest concentration of the antimicrobial composition is identified. Each part of the anti-bacterial challenge consists of a 7-day test cycle. The parts are performed consecutively over 14 test days. […] Challenge testing is accomplished using a mixed bacterial inoculum as the contamination event. These bacteria are Pseudomonas aeruginosa (ATCC #10145), Escherichia coli (ATCC #11229), Enterobacter aerogenes (ATCC #13048), and Alcaligenes faecalis (ATCC #25094). To make the test inoculum, each type of bacteria is grown separately in nutrient broth. Just before use in the challenge test, equal volumes of the four types of bacteria are blended together to make a mixed inoculum. After incubation, both control blanks and samples containing preservative are inoculated with the mixed inoculum. […] Performance ratings of 0, 1, 2, 3 or 4 for each test sample are determined by visual inspection according to the definitions set forth below in Table 1.

Compound: O=c1[nH]sc2ccccc12 [BIT, benzisothiazolinone]
- concentration alone required to provide the required protection against bacterial growth on Test Day 14 (adhesive): at least 0.013%
- concentration alone required to provide the required protection against bacterial growth on Test Day 14 (paint): at least 0.004%
